Data taken from patent publication US20260284011A1, “COMPOUNDS FOR RESTORING SUSCEPTIBILITY TO BETA-LACTAM ANTIBIOTICS” (UNIVERSITY OF NOTRE DAME DU LAC, priority 2023, published 2026).
Where two headings read alike, the source gives them in different places.

What was measured:
Experiment in all cases: MIC determination and potentiation assay (microdilution broth)
Type in all cases: cell-based
[1] = tested on: HFH 30495, MRSA, SCCmec II, bla +; details: Staphylococcus aureus
Protocol: (§1) MICs were determined by the microdilution broth method following the Clinical & Laboratory Standards Institute (CLSI) guidelines. […] Experiments were performed in triplicate in 96-well plates with 5×10^5 CFU·mL^−1 of bacteria. […] The MIC was the concentration for which bacterial growth was not observed.

[2] = tested on: HIP06297 (NRS17), MRSA, SCCmec II, bla +; details: Staphylococcus aureus
Protocol: as §1

[3] = tested on: CT-19 (NRS676), MRSA, SCCmec IV, bla +; details: Staphylococcus aureus
Protocol: as §1

[4] = tested on: CM05, MRSA, SCCmec I, bla +; details: Staphylococcus aureus
Protocol: as §1

[5] = tested on: MSSA476 (NRS72), MSSA, bla +; details: Staphylococcus aureus
Protocol: as §1

[6] = tested on: 626 (NRS382), MRSA, SCCmec II, bla +; details: Staphylococcus aureus
Protocol: as §1

[7] = tested on: CO-34 (NRS662), MRSA, SCCmec IV, bla +; details: Staphylococcus aureus
Protocol: as §1

[8] = tested on: H2138 (NRS271), MRSA, SCCmec IV, bla +; details: Staphylococcus aureus
Protocol: as §1

[9] = tested on: CA-127 (NRS643), MRSA, SCCmec IV, bla +; details: Staphylococcus aureus
Protocol: as §1

[10] = tested on: AIS 1000505 (VRS10), MRSA, vancomycin-resistant, SCCmec II, bla +; details: Staphylococcus aureus
Protocol: as §1

[11] = tested on: HIP13036 (NRS404), MRSA/VISA, SCCmec II, bla +; details: Staphylococcus aureus
Protocol: as §1

[12] = tested on: HT 20020320 (NRS245), MRSA, SCCmec IV, bla +; details: Staphylococcus aureus
Protocol: as §1

[13] = tested on: CA-347 (NRS648), MRSA, SCCmec II, bla +; details: Staphylococcus aureus
Protocol: as §1

[14] = tested on: ATCC 33591, MRSA, SCCmec III, bla +; details: Staphylococcus aureus
Protocol: as §1

[15] = tested on: LinR#12 (NRS119), MRSA, SCCmec IV, bla +; details: Staphylococcus aureus
Protocol: as §1

[16] = tested on: 880, MRSA, SCCmec IV, bla +
Protocol: as §1

[17] = tested on: CO-23 (NRS661), MRSA, SCCmec II, bla +; details: Staphylococcus aureus
Protocol: as §1

[18] = tested on: USA300-0114 (NRS384), MRSA, SCCmec IV, bla +; details: Staphylococcus aureus
Protocol: as §1

[19] = tested on: CA-263 (NRS647), MRSA, SCCmec IV, bla +; details: Staphylococcus aureus
Protocol: as §1

NRS128, MSSA, bla + = details: Staphylococcus aureus
Protocol: as §1

[20] = tested on: HIP 07930 (NRS22), MRSA/VISA, SCCmec II, bla +; details: Staphylococcus aureus
Protocol: as §1

[21] = tested on: MN-082 (NRS701), MRSA, SCCmec II, bla +; details: Staphylococcus aureus
Protocol: as §1

[22] = tested on: FPR3757, MRSA, USA300 clone, SCCmec IV, bla +; details: Staphylococcus aureus
Protocol: as §1

[23] = tested on: MW2 (NRS123), MRSA, SCCmec IV, bla +; details: Staphylococcus aureus
Protocol: as §1

[24] = tested on: N315 (NRS70), MRSA, SCCmec II, bla +; details: Staphylococcus aureus
Protocol: as §1

[25] = tested on: HI049, MRSA, USA300 clone, SCCmec IV, bla +; details: Staphylococcus aureus, agent alone
Protocol: as §1

[26] = tested on: HIP5836 (NRS4), MRSA/VISA, SCCmec II, bla +; details: Staphylococcus aureus, agent alone
Protocol: as §1

[27] = HFH 30495, agent alone, read-out: MIC
[28] = HIP06297 (NRS17), agent alone, read-out: MIC
[29] = CT-19 (NRS676), agent alone, read-out: MIC
[30] = N315 (NRS70), agent alone, read-out: MIC
[31] = MSSA476 (NRS72), agent alone, read-out: MIC
[32] = 626 (NRS382), agent alone, read-out: MIC
[33] = CO-34 (NRS662), agent alone, read-out: MIC
[34] = H2138 (NRS271), agent alone, read-out: MIC
[35] = CA-127 (NRS643), agent alone, read-out: MIC
[36] = AIS 1000505 (VRS10), agent alone, read-out: MIC
[37] = HIP13036 (NRS404), agent alone, read-out: MIC
[38] = HT 20020320 (NRS245), agent alone, read-out: MIC
[39] = CA-347 (NRS648), agent alone, read-out: MIC
[40] = ATCC 33591, agent alone, read-out: MIC
[41] = LinR#12 (NRS119), agent alone, read-out: MIC
[42] = Staphylococcus aureus, 880, agent alone, read-out: MIC
[43] = CO-23 (NRS661), agent alone, read-out: MIC
[44] = USA300-0114 (NRS384), agent alone, read-out: MIC
[45] = CA-263 (NRS647), agent alone, read-out: MIC
[46] = NRS128, agent alone, read-out: MIC
[47] = HIP 07930 (NRS22), agent alone, read-out: MIC
[48] = MN-082 (NRS701), agent alone, read-out: MIC
[49] = FPR3757, agent alone, read-out: MIC
[50] = MW2 (NRS123), agent alone, read-out: MIC

Cc1onc(-c2ccccc2)c1C(=O)N[C@@H]1C(=O)N2[C@@H]1SC(C)(C)[C@@H]2C(=O)O [OXA, oxacillin]
MIC [1]: 512 µg/mL
MIC [2]: 2 µg/mL
MIC [3]: 256 µg/mL
MIC [4]: 512 µg/mL
MIC [5]: 0.5 µg/mL
MIC [6]: 512 µg/mL
MIC [7]: 64 µg/mL
MIC [8]: 256 µg/mL
MIC [9]: 64 µg/mL
MIC [10]: 256 µg/mL
MIC [11]: 256 µg/mL
MIC [12]: 64 µg/mL
MIC [13]: 256 µg/mL
MIC [14]: 512 µg/mL
MIC [15]: 512 µg/mL
MIC ([16]; Staphylococcus aureus): 256 µg/mL
MIC [17]: 256 µg/mL
MIC [18]: 128 µg/mL
MIC [19]: 64 µg/mL
MIC (NRS128, MSSA, bla +): 0.5 µg/mL
MIC [20]: 64 µg/mL
MIC [21]: 512 µg/mL
MIC [22]: 64 µg/mL
MIC [23]: 64 µg/mL

N#Cc1ccc2nc(SCB(O)O)n(Cc3ccc(C(F)(F)F)cc3C(F)(F)F)c2c1 [Compound 4, (((1-(2,4-bis(trifluoro-methyl)benzyl)-6-cyano-1H-benzo[d]imidazol-2-yl)thio)methyl)boronic acid]
MIC [1, 27]: 16 µg/mL
MIC [2, 28]: 32 µg/mL
MIC [3, 29]: 16 µg/mL
MIC [4]: 32 µg/mL
MIC [24, 30]: 16 µg/mL
MIC [5, 31]: 32 µg/mL
MIC [6, 32]: 16 µg/mL
MIC [7, 33]: 16 µg/mL
MIC [8, 34]: 16 µg/mL
MIC [9, 35]: 16 µg/mL
MIC [10, 36]: 16 µg/mL
MIC [11, 37]: 8 µg/mL
MIC [12, 38]: 16 µg/mL
MIC [13, 39]: 16 µg/mL
MIC [25]: 16 µg/mL
MIC [14, 40]: 16 µg/mL
MIC [15, 41]: 16 µg/mL
MIC [16, 42]: 16 µg/mL
MIC [17, 43]: 32 µg/mL
MIC [18, 44]: 16 µg/mL
MIC [19, 45]: 16 µg/mL
MIC (NRS128, MSSA, bla +; [46]): 16 µg/mL
MIC [20, 47]: 16 µg/mL
MIC [21, 48]: 16 µg/mL
MIC [26]: 16 µg/mL
MIC [22, 49]: 16 µg/mL
MIC [23, 50]: 16 µg/mL

C[C@@H](O)[C@H]1C(=O)N2C(C(=O)O)=C(S[C@@H]3CN[C@H](C(=O)N(C)C)C3)[C@H](C)[C@H]12 [MEM, meropenem]
MIC [1, 27]: 32 µg/mL
MIC [2, 28]: 4 µg/mL
MIC [3, 29]: 4 µg/mL
MIC [4]: > 32 µg/mL
MIC [24, 30]: 16 µg/mL
MIC [5, 31]: 0.13 µg/mL
MIC [6, 32]: 32 µg/mL
MIC [7, 33]: 8 µg/mL
MIC [8, 34]: 16 µg/mL
MIC [9, 35]: 4 µg/mL
MIC [10, 36]: 32 µg/mL
MIC [11, 37]: 8 µg/mL
MIC [12, 38]: 8 µg/mL
MIC [13, 39]: 16 µg/mL
MIC [25]: 8 µg/mL
MIC [14, 40]: 16 µg/mL
MIC [15, 41]: 32 µg/mL
MIC [16, 42]: 16 µg/mL
MIC [17, 43]: 32 µg/mL
MIC [18, 44]: 4 µg/mL
MIC [19, 45]: 4 µg/mL
MIC (NRS128, MSSA, bla +; [46]): 0.13 µg/mL
MIC [20, 47]: 8 µg/mL
MIC [21, 48]: 32 µg/mL
MIC [26]: 8 µg/mL
MIC [22, 49]: 4 µg/mL
MIC [23, 50]: 4 µg/mL

CO[C@@]1(NC(=O)Cc2cccs2)C(=O)N2C(C(=O)O)=C(COC(N)=O)CS[C@@H]21 [FOX, cefoxitin]
MIC [1, 27]: 256 µg/mL
MIC [2, 28]: 256 µg/mL
MIC [3, 29]: 64 µg/mL
MIC [4]: 512 µg/mL
MIC [24]: 128 µg/mL
MIC [5, 31]: 4 µg/mL
MIC [6]: 512 µg/mL
MIC [7, 33]: 64 µg/mL
MIC [8]: 128 µg/mL
MIC [9]: 128 µg/mL
MIC [10]: 128 µg/mL
MIC [11, 37]: 256 µg/mL
MIC [12]: 128 µg/mL
MIC [13]: 128 µg/mL
MIC [25]: 64 µg/mL
MIC [14]: 128 µg/mL
MIC [15, 41]: 256 µg/mL
MIC [16, 42]: 64 µg/mL
MIC [17]: 128 µg/mL
MIC [18, 44]: 64 µg/mL
MIC [19, 45]: 32 µg/mL
MIC (NRS128, MSSA, bla +): 4 µg/mL
MIC [20]: 128 µg/mL
MIC [21, 48]: 256 µg/mL
MIC [26]: 64 µg/mL
MIC [22, 49]: 64 µg/mL
MIC [23, 50]: 64 µg/mL

CCO/N=C(\C(=O)N[C@@H]1C(=O)N2C(C(=O)[O-])=C(Sc3nc(-c4cc[n+](C)cc4)cs3)CS[C@H]12)c1nsc(N)n1 [CPT, ceftaroline]
MIC [1, 27]: 1 µg/mL
MIC [2, 28]: 1 µg/mL
MIC [3, 29]: 1 µg/mL
MIC [4]: 2 µg/mL
MIC [24, 30]: 1 µg/mL
MIC [5, 31]: 0.13 µg/mL
MIC [6, 32]: 1 µg/mL
MIC [7, 33]: 1 µg/mL
MIC [8, 34]: 1 µg/mL
MIC [9, 35]: 0.5 µg/mL
MIC [10, 36]: 1 µg/mL
MIC [11, 37]: 1 µg/mL
MIC [12, 38]: 0.5 µg/mL
MIC [13, 39]: 1 µg/mL
MIC [25]: 1 µg/mL
MIC [14, 40]: 1 µg/mL
MIC [15, 41]: 1 µg/mL
MIC [16, 42]: 1 µg/mL
MIC [17, 43]: 1 µg/mL
MIC [18, 44]: 0.5 µg/mL
MIC [19, 45]: 0.5 µg/mL
MIC (NRS128, MSSA, bla +; [46]): 0.06 µg/mL
MIC [20, 47]: 0.25 µg/mL
MIC [21, 48]: 2 µg/mL
MIC [26]: 0.25 µg/mL
MIC [22, 49]: 0.5 µg/mL
MIC [23, 50]: 1 µg/mL
